Data taken from publication PMC9655119, “Sustained Activation of CLR/RAMP Receptors by Gel-Forming Agonists” (International Journal of Molecular Sciences, 2022).
pEC50: −log10 of the molar value. Like-named read-outs stand apart in the source and are kept apart here.

Experiments:
Format in all cases: cell-based
[1] = test system: primary human lymphatic microvascular endothelial (HLME) cells; assay: HLME cell survival (MTT assay); conditions: 30, 100, 300 nmoles/L, medium with 0.1% FBS, 72 h, quintuplicate samples
Method: (§1) Primary human lymphatic microvascular endothelial cells (HLME cells; Cell Applications, Inc., San Diego, CA, USA) were maintained in a microvascular endothelial cell growth medium supplemented with 10% fetal bovine serum (FBS). […] After 72-h incubation, cell viability was determined with the 3-(4,5-dimethylthiazol-2-yl)-2,5-diphenyltetrazolium bromide (MTT) assay (Promega). To evaluate the effects on endothelial cell survival, HLME cells were treated with different concentrations of the agonist or controls (30, 100, and 300 nmoles/L) and cultured in a basal medium with 0.1% FBS for 72 h. Cell viability was then assayed with the MTT assay.

[2] = test system: primary human lymphatic microvascular endothelial (HLME) cells; assay: HLME cell proliferation (MTT assay); conditions: 30, 100, 300 nmoles/L, medium with 2% FBS, 72 h, quintuplicate samples
Method: as §1

human CLR/RAMP2 = target: T1, human CLR/RAMP2 (Homo sapiens, UniProt O60895+Q16602); assay: CLR/RAMP2 receptor-activation assay (PathHunter β-Arrestin); conditions: […], read-out: CLR/RAMP2 Max Activity
T1 construct: host or cells: CHO-K1 cells (PathHunter β-Arrestin cell line)
Method: (§2) The bioactivity of peptide analogs was studied using CLR/RAMP1, CLR/RAMP2, and CLR/RAMP3 assays by DiscoveRx (Fremont, CA, USA) in cells that stably express human CLR/RAMP1 (1321N1 cells), CLR/RAMP2 (CHO-K1 cells), or CLR/RAMP3 (CHO-K1 cells). The dose-dependent stimulatory effect of agonists was studied in duplicate, at 10 different concentrations. Determination of the half-maximal effective concentration (EC50) was performed using a 10-point dose-response curves. The starting concentration was 1.0 μM, and it was serially diluted 3-fold, in DMSO.
In this assay, the CLR was fused in frame with a small enzyme donor fragment ProLink™ (PK). The receptor was co-expressed with a fusion protein of β-arrestin and an N-terminal deletion mutant of β-galactosidase (i.e., enzyme acceptor). Activation of the CLR/RAMP2 receptor stimulated the binding of β-arrestin to the PK-tagged receptor and led to an increase in enzyme activities which can then be measured with the PathHunter detection reagents. PathHunter cell lines were seeded in a total volume of 20 μL into 384-well microplates and incubated at 37 °C prior to the assay. Intermediate dilution of samples was performed to generate 5X samples in the assay buffer. A 5 μL aliquot of 5X sample was added to cells and incubated at 37 °C for 90 min. Vehicle concentration was 1%.

human CLR/RAMP1 = target: T2, human CLR/RAMP1 (Homo sapiens, UniProt O60894+Q16602); assay: CLR/RAMP1 receptor-activation assay (DiscoverX cAMP Hunter, HitHunter cAMP XS+); conditions: for Emax: read-out: CLR/RAMP1 Max Activity
T2 construct: host or cells: 1321N1 cells (cAMP Hunter cell line)
Method: as §2
Cells were seeded in a total volume of 20 μL into 384-well microplates, and the activity was determined using the DiscoverX HitHunter cAMP XS + assay. Before the assay, media was aspirated from cells and replaced with 15 μL 2:1 HBSS/10 mM Hepes: cAMP XS + Ab reagent. Intermediate dilution of samples was performed to generate 4X sample in assay buffer, and 5 μL of the 4X sample was added to cells and incubated at 37°C. Vehicle concentration was 1%.
The chemiluminescent signal was read with a PerkinElmer instrument.

[3] = percentage of positive control β-CGRP

T1 sequence (Q16602 23-461): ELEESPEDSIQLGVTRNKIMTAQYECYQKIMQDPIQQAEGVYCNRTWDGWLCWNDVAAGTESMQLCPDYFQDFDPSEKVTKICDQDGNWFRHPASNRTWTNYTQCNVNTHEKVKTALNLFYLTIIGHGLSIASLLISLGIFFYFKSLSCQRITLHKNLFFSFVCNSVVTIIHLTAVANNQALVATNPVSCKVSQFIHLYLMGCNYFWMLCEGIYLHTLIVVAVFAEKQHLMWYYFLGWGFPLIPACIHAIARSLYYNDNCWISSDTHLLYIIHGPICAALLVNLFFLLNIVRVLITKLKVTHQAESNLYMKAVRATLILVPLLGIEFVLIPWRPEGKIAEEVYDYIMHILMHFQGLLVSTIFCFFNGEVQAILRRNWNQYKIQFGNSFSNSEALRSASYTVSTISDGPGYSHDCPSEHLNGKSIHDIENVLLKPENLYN
T1 sequence (O60895 43-175): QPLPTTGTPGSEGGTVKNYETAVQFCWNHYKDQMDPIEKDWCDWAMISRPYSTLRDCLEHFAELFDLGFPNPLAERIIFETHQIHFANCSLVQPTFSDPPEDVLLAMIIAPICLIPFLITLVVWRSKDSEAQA
T2 sequence (Q16602 23-461): as the sequence (Q16602 23-461) above
T2 sequence (O60894 27-148): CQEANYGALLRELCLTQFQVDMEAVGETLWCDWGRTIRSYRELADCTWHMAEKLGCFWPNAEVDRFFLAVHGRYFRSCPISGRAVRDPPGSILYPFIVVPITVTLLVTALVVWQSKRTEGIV

**Q.** With `CC[C@H](C)[C@H](NC(=O)[C@H](CCC(N)=O)NC(=O)[C@H](Cc1c[nH]cn1)NC(=O)[C@H](C)NC(=O)[C@H](CC(C)C)NC(=O)[C@H](CCCCN)NC(=O)[C@H](CCC(N)=O)NC(=O)[C@@H](NC(=O)[C@@H](NC(=O)[C@@H]1CSSC[C@H](NC(=O)CNC(=O)[C@@H](N)Cc2ccccc2)C(=O)N[C@@H](CCCNC(=N)N)C(=O)N[C@@H](Cc2ccccc2)C(=O)NCC(=O)N[C@@H]([C@@H](C)O)C(=O)N1)[C@@H](C)O)C(C)C)C(=O)N[C@@H](Cc1ccc(O)cc1)C(=O)N[C@@H](CCC(N)=O)C(=O)N[C@@H](Cc1ccccc1)C(=O)N[C@H](C(=O)N[C@@H](CC(=O)O)C(=O)N[C@@H](CCCCN)C(=O)N[C@@H](CC(=O)O)C(=O)N[C@@H](CCCCN)C(=O)N[C@@H](CC(=O)O)C(=O)N[C@@H](CC(N)=O)C(=O)N[C@H](C(=O)N[C@@H](C)C(=O)N1CCC[C@H]1C(=O)N[C@@H](CCCNC(=N)N)C(=O)N[C@@H](CO)C(=O)N[C@@H](CCCCN)C(=O)N[C@H](C(=O)N[C@@H](CO)C(=O)N1CCC[C@H]1C(=O)N[C@@H](CCC(N)=O)C(=O)NCC(=O)N[C@@H](Cc1ccc(O)cc1)C(N)=O)[C@@H](C)CC)C(C)C)[C@@H](C)O` [ADM14-52, reference compound] as the compound, how does the “effect on HLME cell survival” value [1] read?
**A.** minimal effects

**Q.** What about the “effect on HLME cell proliferation” value [2] of the same compound?
**A.** minimal effects

**Q.** And the Emax (human CLR/RAMP2; percentage of positive control ADM1-52)?
**A.** 102%

**Q.** What about the pEC50 (human CLR/RAMP1; 1321N1 cells stably expressing human CLR/RAMP1, cAMP read-out, 10-point dose-response in duplicate, start 1.0 μM, 3-fold serial dilution in DMSO) of the same compound?
**A.** < 7.00

**Q.** And the Emax (human CLR/RAMP1; [3])?
**A.** 69%

**Q.** How did the “effect on HLME cell survival” value [1] turn out when `CC[C@H](C)[C@H](NC(=O)[C@H](CCC(N)=O)NC(=O)[C@H](Cc1c[nH]cn1)NC(=O)[C@H](C)NC(=O)[C@H](CC(C)C)NC(=O)[C@H](CCCCN)NC(=O)[C@H](CCC(N)=O)NC(=O)[C@@H](NC(=O)[C@@H](NC(=O)[C@@H]1CSSC[C@H](NC(=O)CNC(=O)[C@H](CCCCN)NC(C)=O)C(=O)N[C@@H](CCCNC(=N)N)C(=O)N[C@@H](Cc2ccccc2)C(=O)NCC(=O)N[C@@H]([C@@H](C)O)C(=O)N1)[C@@H](C)O)C(C)C)C(=O)N[C@@H](Cc1ccc(O)cc1)C(=O)N[C@@H](CCC(N)=O)C(=O)N[C@@H](Cc1ccccc1)C(=O)N[C@H](C(=O)N[C@@H](CC(=O)O)C(=O)N[C@@H](CCCCN)C(=O)N[C@@H](CC(=O)O)C(=O)N[C@@H](CCCCN)C(=O)N[C@@H](CC(=O)O)C(=O)N[C@@H](CC(N)=O)C(=O)N[C@@H](CO)C(=O)N[C@@H](C)C(=O)N1CCC[C@H]1C(=O)N[C@H](C(=O)N[C@@H](CC(=O)O)C(=O)N1CCC[C@H]1C(=O)N[C@@H](CO)C(=O)N[C@@H](CO)C(=O)N1CCC[C@H]1C(=O)N[C@@H](Cc1c[nH]cn1)C(=O)N[C@@H](CO)C(=O)N[C@@H](Cc1ccc(O)cc1)C(N)=O)C(C)C)[C@@H](C)O` [Analog B-6] was run?
**A.** minimal effects

**Q.** What does the source list for `CC[C@H](C)[C@H](NC(=O)[C@H](CCC(N)=O)NC(=O)[C@H](Cc1c[nH]cn1)NC(=O)[C@H](C)NC(=O)[C@H](CC(C)C)NC(=O)[C@H](CCCCN)NC(=O)[C@H](CCC(N)=O)NC(=O)[C@@H](NC(=O)[C@@H](NC(=O)[C@@H]1CSSC[C@H](NC(=O)CNC(=O)[C@H](Cc2ccccc2)NC(=O)[C@H](CO)NC(=O)[C@H](CCCNC(=N)N)NC(=O)[C@H](CC(C)C)NC(=O)CNC(=O)[C@H](CCC(N)=O)NC(=O)[C@H](Cc2ccccc2)NC(=O)[C@H](CC(N)=O)NC(=O)[C@H](CC(N)=O)NC(=O)[C@H](CCSC)NC(=O)[C@H](CO)NC(=O)[C@H](CCC(N)=O)NC(=O)[C@H](CCCNC(=N)N)NC(=O)[C@@H](N)Cc2ccc(O)cc2)C(=O)N[C@@H](CCCNC(=N)N)C(=O)N[C@@H](Cc2ccccc2)C(=O)NCC(=O)N[C@@H]([C@@H](C)O)C(=O)N1)[C@@H](C)O)C(C)C)C(=O)N[C@@H](Cc1ccc(O)cc1)C(=O)N[C@@H](CCC(N)=O)C(=O)N[C@@H](Cc1ccccc1)C(=O)N[C@H](C(=O)N[C@@H](CC(=O)O)C(=O)N[C@@H](CCCCN)C(=O)N[C@@H](CC(=O)O)C(=O)N[C@@H](CCCCN)C(=O)N[C@@H](CC(=O)O)C(=O)N[C@@H](CC(N)=O)C(=O)N[C@H](C(=O)N[C@@H](C)C(=O)N1CCC[C@H]1C(=O)N[C@@H](CCCNC(=N)N)C(=O)N[C@@H](CO)C(=O)N[C@@H](CCCCN)C(=O)N[C@H](C(=O)N[C@@H](CO)C(=O)N1CCC[C@H]1C(=O)N[C@@H](CCC(N)=O)C(=O)NCC(=O)N[C@@H](Cc1ccc(O)cc1)C(N)=O)[C@@H](C)CC)C(C)C)[C@@H](C)O` [ADM1-52]?
**A.** effect on HLME cell survival [1]: minimal effects; effect on HLME cell proliferation [2]: minimal effects; Emax (human CLR/RAMP1; [3]): 63%

**Q.** With `CCCCCCCCCCCCCCCC(=O)NCCCC[C@H](NC(=O)COCCOCCN)C(=O)N[C@H](C(=O)N[C@@H](CCCCN)C(=O)N[C@@H](CCCCN)C(=O)N[C@H](C(=O)N[C@@H](CC(C)C)C(=O)N[C@@H](CCCNC(=N)N)C(=O)N[C@H](C(=O)NCC(=O)N[C@H]1CSSC[C@@H](C(=O)N[C@H](C(=O)N[C@H](C(=O)N[C@@H](CCC(N)=O)C(=O)N[C@@H](CCCCN)C(=O)N[C@@H](CC(C)C)C(=O)N[C@@H](C)C(=O)N[C@@H](Cc2c[nH]cn2)C(=O)N[C@@H](CCC(N)=O)C(=O)N[C@H](C(=O)N[C@@H](Cc2ccc(O)cc2)C(=O)N[C@@H](CCC(N)=O)C(=O)N[C@@H](Cc2ccccc2)C(=O)N[C@H](C(=O)N[C@@H](CC(=O)O)C(=O)N[C@@H](CCCCN)C(=O)N[C@@H](CC(=O)O)C(=O)N[C@@H](CCCCN)C(=O)N[C@@H](CC(=O)O)C(=O)N[C@@H](CC(N)=O)C(=O)N[C@H](C(=O)N[C@@H](C)C(=O)N2CCC[C@H]2C(=O)N[C@@H](CCCNC(=N)N)C(=O)N[C@@H](CO)C(=O)N[C@@H](CCCCN)C(=O)N[C@H](C(=O)N[C@@H](CO)C(=O)N2CCC[C@H]2C(=O)N[C@@H](CCC(N)=O)C(=O)NCC(=O)N[C@@H](Cc2ccc(O)cc2)C(N)=O)[C@@H](C)CC)C(C)C)[C@@H](C)O)[C@@H](C)CC)C(C)C)[C@@H](C)O)NC(=O)[C@H]([C@@H](C)O)NC(=O)CNC(=O)[C@H](Cc2ccccc2)NC(=O)[C@H](CCCNC(=N)N)NC1=O)[C@@H](C)O)[C@@H](C)O)[C@@H](C)O` [Analog C-8] as the compound, how does the Emax (human CLR/RAMP2) read?
**A.** 68%

**Q.** And the Emax (human CLR/RAMP1)?
**A.** 69%

**Q.** For `CCCCCCCCCCCCCCCC(=O)NCCCC[C@H](NC(=O)COCCOCCN)C(=O)NCC(=O)N[C@H]1CSSC[C@@H](C(=O)N[C@H](C(=O)N[C@H](C(=O)N[C@@H](CCC(N)=O)C(=O)N[C@@H](CCCCN)C(=O)N[C@@H](CC(C)C)C(=O)N[C@@H](C)C(=O)N[C@@H](Cc2c[nH]cn2)C(=O)N[C@@H](CCC(N)=O)C(=O)N[C@H](C(=O)N[C@@H](Cc2ccc(O)cc2)C(=O)N[C@@H](CCC(N)=O)C(=O)N[C@@H](Cc2ccccc2)C(=O)N[C@H](C(=O)N[C@@H](CC(=O)O)C(=O)N[C@@H](CCCCN)C(=O)N[C@@H](CC(=O)O)C(=O)N[C@@H](CCCCN)C(=O)N[C@@H](CC(=O)O)C(=O)N[C@@H](CC(N)=O)C(=O)N[C@@H](CO)C(=O)N[C@@H](C)C(=O)N2CCC[C@H]2C(=O)N[C@H](C(=O)N[C@@H](CC(=O)O)C(=O)N2CCC[C@H]2C(=O)N[C@@H](CO)C(=O)N[C@@H](CO)C(=O)N2CCC[C@H]2C(=O)N[C@@H](Cc2c[nH]cn2)C(=O)N[C@@H](CO)C(=O)N[C@@H](Cc2ccc(O)cc2)C(N)=O)C(C)C)[C@@H](C)O)[C@@H](C)CC)C(C)C)[C@@H](C)O)NC(=O)[C@H]([C@@H](C)O)NC(=O)CNC(=O)[C@H](Cc2ccccc2)NC(=O)[C@H](CCCNC(=N)N)NC1=O` [Analog B-1], which Emax (human CLR/RAMP2) is on record?
**A.** 143%

**Q.** And the Emax (human CLR/RAMP1)?
**A.** 54%
